Assays:
[1] = tested on: H460 non-small-cell lung cancer cells; assay: 24-hour MTT chemosensitivity assay with 72-hour recovery, H460; assay type: cell-based; settings: for IC50: 24 h exposure, 72 h recovery, MTT, read-out: IC50 values ±SD, H460; for Selectivity index (SI), H460: mean IC50 PNT2 / mean IC50 H460
Method: (§1) Chemosensitivity studies were undertaken using a 24‐hour MTT assay, with a 72‐hour recovery period. The IC50 values were determined against ovarian A2780 (cisplatin‐sensitive) and A2780cisR (cisplatin‐resistant) cancer cell lines, non‐small‐cell lung H460 cancer cell line, and normal prostate PNT2 cell line, exposed to each of compounds 4–8, cisplatin or the phosphine ligands (Table 1 and S4, Figures S29–S31). […] This is unusual but can be related to solubility issues not visible for the naked eye and thus hindering its activity in cells. […] When tested on their own, the phosphine ligands are not active below 100 μM for all four cell lines. […] This therefore prevents comparison with the well‐known RAPTA family, and more especially with RAPTA−C which bears a PTA ligand and a p‐cym ligand, making this complex relatively similar in terms of geometry with complex 4.[21] […] This confirms the interest of the sulfur coordinating atom in terms of cytotoxicity for organoruthenium complexes.[23]
(§2) Chemosensitivity assay: In vitro chemosensitivity tests were performed against A2780, A2780cisR, PNT2 and H460 cells. Cells were routinely maintained as monolayer cultures in RPMI 1640 medium supplemented with 10 % foetal calf serum, penicillin (100 I.U./mL) and streptomycin (100 μg/mL), sodium pyruvate (1 mM) and L‐glutamine (2 mM). For chemosensitivity studies, cells were seeded in 96‐well plates at a concentration of 7.5×10^3 cells per well and the plates were incubated for 24 h at 37 °C and a 5 % CO2 humidified atmosphere prior to drug exposure.
(§3) Complexes were dissolved in either DMSO (complexes 4, 5, and 8) or PBS (complexes 6 and 7) to provide stock solutions which were further diluted with media to provide a range of final concentrations. Drug‐media solutions were added to cells (the final concentration of DMSO was less than 1 % (v/v) in all cases) and incubated for 24 h at 37 °C and a 5 % CO2 humidified atmosphere. The drug‐media solution was removed from the wells and the cells were washed with PBS (100 μL, twice) and 200 μL of complete fresh media were added to each well. The plates were further incubated for 72 h at 37 °C and a 5 % CO2 humidified atmosphere to allow for a period of recovery. 3‐(4,5‐dimethylthiazol‐2‐yl)‐2,5‐diphenyltetrazolium bromide (MTT) (40 μL, 2.5 mg/mL) was added to each well and plates were incubated for 2 h. All solutions were then removed and 100 μL of DMSO was added to each well in order to dissolve the purple formazan crystals. A Thermo Scientific Multiskan EX microplate photometer was used to measure the absorbance in each well at 570 nm. Cell survival was determined as the absorbance of treated cells divided by the absorbance of controls and expressed as a percentage. The IC50 values were determined from plots of % survival against drug concentration. Each experiment was repeated in triplicates of triplicates and a mean value was obtained and stated as IC50 (μM) ± SD. Untreated cells were used as a negative control, and cells treated with cisplatin were used as a positive control.

[2] = tested on: A2780 cells; assay: JC-10 mitochondrial membrane potential assay by flow cytometry; assay type: cell-based, human; settings: A2780, 24 h, complexes at IC50, cisplatin 6.5 µM
Text: A membrane potential sensitive fluorescent probe JC‐10 was used to determine whether the apoptosis induced by complexes 6 and 8 is accompanied by changes in the mitochondrial membrane potential (ΔΨm) of A2780 cells. JC‐10 aggregates inside mitochondria and emits orange fluorescence. Following membrane […], JC‐10 is disaggregated and this in turn reduces the orange fluorescence.
Figure 8 Effect of complexes 6 and 8 on the mitochondrial membrane potential. […] The percentages of cells with depolarised mitochondrial membrane potential were assessed by flow cytometry after staining with JC‐10. The data are expressed as the means±SD of the three individual experiments.
Mitochondrial membrane potential assay: Analysis of the changes of mitochondrial potential in A2780 cells after exposure to complexes 6 and 8 was carried out using the JC‐10 mitochondrial membrane potential assay kit (abcam®) according to the manufacturer's instructions. Briefly, 1.0×10^6 cells per well were seeded in a 6‐well plate and incubated for 24 at 37 °C and a 5 % CO2 humidified atmosphere. […] Supernatants were removed by suction, and each well was washed with PBS before detaching the cells using trypsin. Staining of the samples was done in tubes protected from light, incubating for 30 min in the dark at room temperature. Samples were immediately analysed on a BD Accuri C6 Plus System Flow Cytometer, reading the reduction of fluorescence in the FL2 channel.

[3] = tested on: A2780cisR cells; assay: Cell viability with N-acetylcysteine (MTT), A2780cisR; assay type: cell-based, human; settings: NAC 5 mM 30 min before complexes at IC50
Method: (§4) Cell viability with N ‐acetylcysteine: Cells were seeded in 96‐well plates at a concentration of 7.5×10^3 cells per well and the plates were incubated for 24 h at 37 °C and a 5 % CO2 humidified atmosphere prior to drug exposure. Complexes were dissolved in either DMSO or PBS to provide stock solutions which were further diluted with media to provide a range of final concentrations. Solution of N‐acetylcysteine (NAC) in media was also prepared. […] Cells were incubated for 24 h at 37 °C and a 5 % CO2 humidified atmosphere. 3‐(4,5‐dimethylthiazol‐2‐yl)‐2,5‐diphenyltetrazolium bromide (MTT) (20 μL, 2.5 mg/mL) was added to each well and plates were incubated for 2 h. All solutions were then removed and 100 μL of DMSO was added to each well in order to dissolve the purple formazan crystals. A Thermo Scientific Multiskan EX microplate photometer was used to measure the absorbance in each well at 570 nm. Cell survival was determined as the absorbance of treated cells divided by the absorbance of controls and expressed as a percentage.

[4] = tested on: PNT2 non-cancerous human prostate cells; assay: 24-hour MTT chemosensitivity assay with 72-hour recovery, PNT2; assay type: cell-based; settings: 24 h exposure, 72 h recovery, MTT; read-out: IC50 values ±SD, PNT2
Method: as §1, §2, §3

[5] = tested on: A2780 cells; assay: ROS detection, DCFH2-DA assay by flow cytometry; assay type: cell-based, human; settings: A2780, five hours, IC50 concentrations
Method: To confirm the hypothesis of induction of oxidative stress by complexes 6 and 8, based on the potential mechanism of action observed for complex 3, the intracellular production of ROS in A2780 cells exposed to the complexes was investigated using the fluorescent DCFH2‐DA assay with the analysis performed by flow cytometry.
ROS detection: Flow cytometry analysis of total induction of ROS in A2780 cells caused by exposure to complexes 6 and 8 was carried out using DCFH2‐DA assay. Briefly, 1.0×10^6 cells per well were seeded in a 6‐well plate and incubated for 24 at 37 °C and a 5 % CO2 humidified atmosphere. After removal of the media, cells were washed with PBS and loaded with DCFH2‐DA dye (20 μM, in basal RPMI). […] Cells were washed with PBS and harvested with trypsin. Cells were analysed in a BD Accuri C6 Plus System Flow Cytometer using Ex/Em: 490/525 nm for the oxidative stress detection. Data was analysed using the BD Accuri C6 Plus software.

[6] = tested on: A2780cisR cisplatin-resistant ovarian cancer cells; assay: 24-hour MTT chemosensitivity assay with 72-hour recovery, A2780cisR; assay type: cell-based, human; settings: for IC50: 24 h exposure, 72 h recovery, MTT, read-out: IC50 values ±SD, A2780cisR; for Selectivity index (SI), A2780cisR: mean IC50 PNT2 / mean IC50 A2780cisR
Method: as §1, §2, §3

[7] = tested on: A2780 cells; assay: Cell viability with N-acetylcysteine (MTT), A2780; assay type: cell-based, human; settings: A2780, NAC 5 mM 30 min before complexes at IC50
Method: as §4

Row | Molecule | IC50 [1] [nM] | Selectivity index (SI), H460 [1] | % cell population with high orange fluorescence ([2]; Experiment 1) [%] | % cell population with low orange fluorescence ([2]; Experiment 1) [%] | % cell population with high orange fluorescence ([2]; Experiment 2) [%] | % cell population with low orange fluorescence ([2]; Experiment 2) [%] | % cell population with high orange fluorescence ([2]; Experiment 3) [%] | % cell population with low orange fluorescence ([2]; Experiment 3) [%] | % cell population with high orange fluorescence ([2]; Summary, mean values ± SD) [%] | % cell population with low orange fluorescence ([2]; Summary, mean values ± SD) [%] | Cell viability after pre-treatment with NAC [3] | IC50 [4] [nM] | ROS levels in treated cells compared to untreated cells [5] | IC50 [6] [nM] | Selectivity factor (cross-resistance, resistance factor RF) ([6]; IC50 A2780cisR / IC50 A2780) | Selectivity index (SI), A2780cisR [6] | Cell viability after pre-treatment with NAC [7]
1 | (η^6‐p‐cymene)(TPPTS)Ru(Mnt) [Complex 6] | 2000 ± 200 | 0.80 | 60.4 | 39.6 | 55.5 | 44.5 | 62.7 | 37.3 | 59.5 ± 3.7 | 40.5 ± 3.7 | increase of the cell viability | 1600 ± 300 | significant increase of ROS levels | 1300 ± 10 | 2.2 | 1.23 | increase of the cell viability
2 | Cc1ccc(C(C)C)cc1.N#CC1=C(C#N)[S][Ru-]([P+](c2ccccc2)(c2ccccc2)c2ccccc2)[S]1 [Complex 8, (η^6‐p‐cymene)(PPh3)Ru(Mnt)] | 5700 ± 800 | 0.42 | 81.9 | 18.1 | 82.5 | 17.5 | 80.0 | 20.0 | 81.5 ± 1.3 | 18.5 ± 1.3 | increase of the cell viability | 2400 ± 200 | significant increase of ROS levels | 980 ± 60 | – | 2.45 | increase of the cell viability

Source: article PMC9545474, “Anticancer Water‐Soluble Organoruthenium Complexes: Synthesis and Preclinical Evaluation” (Chembiochem, 2022)
